In article PMC4255673 (Analytical Chemistry, 2014):
“Also recorded” adds a separate entry of the source. Bridges are numbered along the chain shown (N, C = ends).

Legend:
[1] = biological target: KDM4C; experiment: In vitro TR-FRET demethylase assay / KDM4C inhibition; assay type: biochemical; conditions: nonbinding control peptide; assay not described
[2] = test system: KDM4C; conditions: cell-based assay; cited from earlier work
[3] = biological target: KDM4C; conditions: cited from earlier work; for inhibition constants: TR-FRET demethylase assay; for apparent increase in activity of second generation peptides over initial leads: vs initial peptide leads
[4] = test system: KDM4C; experiment: HDX-MS of KDM4C ± peptide; assay type: binding

Row | KDM4C inhibition (control peptide) [1] | Substance | inhibitory activity in cells [2] | inhibition constants [3] | apparent increase in activity of second generation peptides over initial leads [3] [fold] | isotopic distribution / EX1 kinetics in site D (331–344) ([4]; KDM4C 331–344, HDX time course, bimodal fit with HX-Express, peptide 160 μM) | HDX of helix 359–370 ([4]; KDM4C 359–370, Figure S1 / data not shown)
1 | noninhibitory | H-ACKWMDDGYCGGG-NH2 (disulfide 2-10 (inferred)) [Peptide 4] |  |  |  |  | 
2 |  | H-ACYTRNMNQC-NH2 (also: sidechain bridge or staple (positions not given here)) [Peptide 2] | none of the peptides showed any inhibitory activity | in the high μM range | 10 | confirmed the occurrence of EX1 kinetics | the perturbation in HDX along site 359–370 was only significant after 10 min; also recorded: Helix 359–370 shows reduced HDX (significant only after 10 min; see Figure S1, Supporting Information) but no EX1 exchange kinetics
3 |  | H-CKWMADGYC-NH2 (disulfide 1-9 (inferred)) [Peptide 3] | none of the peptides showed any inhibitory activity | in the high μM range | 10 |  | 
